Laboratory results published in patent US6451807B1, “Methods of treating sexual dysfunction in an individual suffering from a retinal disease, class 1 congestive heart failure, or myocardial infarction using a PDE5 inhibitor” (Lilly Icos, LLC., priority 1999, dated 2002).

Test system: men with mild to severe erectile dysfunction
Assay: Randomized, double-blind, placebo-controlled on demand study in male erectile dysfunction (Example 7)
Assay type: in vivo, human
Conditions: for patients who rated their ability to maintain an erection (IIEF Question 4) during intercourse as almost always or always / patients who rated their penetration ability (IIEF Question 3) as almost always or always: at endpoint
Method: A third clinical study was a randomized, double-blind, placebo-controlled study using a compound of structural formula (I) (Study Drug) administered “on demand” to patients with male erectile dysfunction. The Study Drug was administered over a period of eight weeks in the treatment of male erectile dysfunction (ED). Erectile dysfunction (ED) is defined as the persistent inability to attain and/or maintain an erection adequate to permit satisfactory sexual performance. “On demand” dosing is defined as intermittent administration of Study Drug prior to expected sexual activity. The study population consisted of 212 men, at least 18 years of age, with mild to severe erectile dysfunction. The Study Drug was orally administered as tablets of coprecipitate made in accordance with Butler U.S. Pat. No. 5,985,326. […] Treatment with all nitrates, azole antifungals (e.g., ketoconazole or itraconazole), warfarin, erythromycin, or antiandrogens was not allowed at any time during the study. No other approved or experimental medications, treatments, or devices used to treat ED were allowed. Forty-one subjects were administered a placebo. The two primary efficacy variables were the ability of a subject to penetrate their partner and their ability to maintain an erection during intercourse, as measured by the International Index of Erectile Function (IIEF). The IIEF Questionnaire contains fifteen questions, and is a brief, reliable measure of erectile function. See R. C. Rosen et al., Urology, 49, pp. 822-830 (1997). Secondary efficacy variables were IIEF domain scores for erectile function, orgasmic function, sexual desire, intercourse satisfaction, and overall satisfaction; the patient's ability to achieve an erection, ability to insert their penis into their partner's vagina, completion of intercourse with ejaculation, satisfaction with the hardness of their erection, and overall satisfaction, all as measured by the Sexual Encounter Profile (SEP) diary; and a global assessment question asked at the end of the treatment period. The SEP is a patient diary instrument documenting each sexual encounter during the course of the study. The safety analysis of the study included all enrolled subjects, and was assessed by evaluating all reported adverse events, and changes in clinical laboratory values, vital signs, physical examination results, and electrocardiogram results.

[1] = 2 to 25 mg on demand, eight weeks

For `CN1CC(=O)N2[C@H](c3ccc4c(c3)OCO4)c3[nH]c4ccccc4c3C[C@@H]2C1=O` [Compound 5, (6R-trans)-6-(1,3-benzodioxol-5-yl)-2,3,6,7,12,12a-hexahydro-2-methylpyrazino[1′,2′:1,6]pyrido[3,4-b]indole-1,4-dione], the “patients who rated their ability to maintain an erection (IIEF Question 4) during intercourse as almost always or always” value (“patients who rated their ability” for short) (2 mg group) was 19.5%, the “patients who rated their penetration ability (IIEF Question 3) as almost always or always” value (2 mg group) was 38.1% and the “sexual performance of men with erectile dysfunction (IIEF, patient diaries, global assessment)” value (2 mg, 5 mg, 10 mg and 25 mg taken on demand) was “significant improvement, relative to placebo”. For the same compound, the “patients who rated their ability” value (5 mg group) was 32.6%, the “patients who rated their penetration ability (IIEF Question 3) as almost always or always” value (5 mg group) was 48.8% and the “patients who rated their ability” value (10 mg group) was 39.0%. The “patients who rated their penetration ability (IIEF Question 3) as almost always or always” value (10 mg group) was 51.2%, the “patients who rated their ability” value (25 mg group) was 69.0% and the “patients who rated their penetration ability (IIEF Question 3) as almost always or always” value (25 mg group) was 83.7%. The “adverse events related to color vision disturbances” value [1] was “no adverse events related to color vision disturbances were reported”, the “severity of adverse events” value [1] was “mild or moderate in severity” and the “change in penetration ability versus placebo (IIEF Question 3)” value (all dose levels (2, 5, 10, 25 mg)) was “statistically significant differences”. For the same compound, the “change in penetration ability versus placebo (comparison reported for IIEF Question 4)” value (the three higher dose levels) was “statistically significant differences”.
